Results from the NIST ThermoML archive (doi:10.1016/j.fluid.2004.09.013).

Settings: for mass density: Fluid (supercritical or subcritical phases), Vibrating tube method

C/C=C/C [(E)-2-butene]
Settings | Critical density [kg/m3] | mass density [kg/m3]
453.25 K, 34989 kPa | – | 504.85
453.25 K, 39997 kPa | – | 515.79
458.25 K, 5018 kPa | – | 143.71
458.25 K, 15001 kPa | – | 424.61
458.25 K, 20004 kPa | – | 451.96
458.25 K, 24994 kPa | – | 471.69
458.25 K, 30004 kPa | – | 487.34
458.25 K, 34994 kPa | – | 500.33
458.25 K, 40004 kPa | – | 511.57
458.26 K, 9992 kPa | – | 376.95
463.25 K, 5019 kPa | – | 132.86
463.25 K, 9998 kPa | – | 364.93
463.25 K, 14997 kPa | – | 416.89
463.25 K, 20001 kPa | – | 445.66
463.25 K, 24994 kPa | – | 466.25
463.25 K, 29992 kPa | – | 482.44
463.25 K, 34997 kPa | – | 495.87
463.25 K, 39985 kPa | – | 507.37
468.25 K, 5019 kPa | – | 124.67
468.25 K, 14984 kPa | – | 408.44
468.25 K, 19991 kPa | – | 439.31
468.25 K, 24990 kPa | – | 460.78
468.25 K, 29991 kPa | – | 477.55
468.25 K, 34993 kPa | – | 491.38
468.25 K, 39991 kPa | – | 503.2
468.26 K, 9993 kPa | – | 352.22
473.25 K, 5018 kPa | – | 118.06
473.25 K, 9998 kPa | – | 339.4
473.25 K, 15002 kPa | – | 400.67
473.25 K, 19991 kPa | – | 432.96
473.25 K, 24985 kPa | – | 455.31
473.25 K, 29991 kPa | – | 472.65
473.25 K, 35002 kPa | – | 486.9
473.25 K, 39993 kPa | – | 499.03
478.25 K, 5018 kPa | – | 112.62
478.25 K, 9993 kPa | – | 326
478.25 K, 14989 kPa | – | 392.47
478.25 K, 19985 kPa | – | 426.52
478.25 K, 25003 kPa | – | 449.85
478.25 K, 29992 kPa | – | 467.75
478.25 K, 35005 kPa | – | 482.42
478.25 K, 40012 kPa | – | 494.85
483.25 K, 5018 kPa | – | 107.95
483.25 K, 9988 kPa | – | 312.49
483.25 K, 14996 kPa | – | 384.28
483.25 K, 19982 kPa | – | 420.06
483.25 K, 25007 kPa | – | 444.4
483.25 K, 29987 kPa | – | 462.83
483.25 K, 35000 kPa | – | 477.93
483.25 K, 39990 kPa | – | 490.66
488.25 K, 5018 kPa | – | 103.9
488.25 K, 9985 kPa | – | 299.1
488.25 K, 14997 kPa | – | 376.01
488.25 K, 20002 kPa | – | 413.74
488.25 K, 25005 kPa | – | 438.9
488.25 K, 29988 kPa | – | 457.94
488.25 K, 34992 kPa | – | 473.43
488.25 K, 40013 kPa | – | 486.57
493.25 K, 5018 kPa | – | 100.36
493.25 K, 9986 kPa | – | 285.99
493.25 K, 14990 kPa | – | 367.61
493.25 K, 20001 kPa | – | 407.28
493.25 K, 25006 kPa | – | 433.4
493.25 K, 29986 kPa | – | 453.04
493.25 K, 35005 kPa | – | 469.02
493.25 K, 39997 kPa | – | 482.38
498.25 K, 5018 kPa | – | 97.2
498.25 K, 9992 kPa | – | 273.51
498.25 K, 14982 kPa | – | 359.21
498.25 K, 19993 kPa | – | 400.8
498.25 K, 25004 kPa | – | 427.91
498.25 K, 29983 kPa | – | 448.16
498.25 K, 35000 kPa | – | 464.56
498.25 K, 39994 kPa | – | 478.26
503.25 K, 5019 kPa | – | 94.38
503.25 K, 9995 kPa | – | 261.54
503.25 K, 14996 kPa | – | 351.04
503.25 K, 19991 kPa | – | 394.38
503.25 K, 25000 kPa | – | 422.42
503.25 K, 30008 kPa | – | 443.38
503.25 K, 35007 kPa | – | 460.15
503.25 K, 39992 kPa | – | 474.14
508.25 K, 5017 kPa | – | 91.73
508.25 K, 9986 kPa | – | 249.99
508.25 K, 14991 kPa | – | 342.7
508.25 K, 19987 kPa | – | 387.81
508.25 K, 24998 kPa | – | 416.93
508.25 K, 30007 kPa | – | 438.53
508.25 K, 34991 kPa | – | 455.68
508.25 K, 39996 kPa | – | 470.06
513.25 K, 5019 kPa | – | 89.39
513.25 K, 9982 kPa | – | 239.32
513.25 K, 14985 kPa | – | 334.4
513.25 K, 19985 kPa | – | 381.11
513.25 K, 24987 kPa | – | 411.43
513.25 K, 29999 kPa | – | 433.67
513.25 K, 34992 kPa | – | 451.29
513.25 K, 39993 kPa | – | 465.98
518.24 K, 30001 kPa | – | 428.87
518.24 K, 35000 kPa | – | 446.94
518.25 K, 5016 kPa | – | 87.15
518.25 K, 9990 kPa | – | 229.8
518.25 K, 14984 kPa | – | 326.26
518.25 K, 20002 kPa | – | 374.92
518.25 K, 24995 kPa | – | 406.05
518.25 K, 39988 kPa | – | 461.92
523.24 K, 24994 kPa | – | 400.62
523.24 K, 39996 kPa | – | 457.91
523.25 K, 5016 kPa | – | 85.12
523.25 K, 9982 kPa | – | 220.69
523.25 K, 14998 kPa | – | 318.44
523.25 K, 20000 kPa | – | 368.56
523.25 K, 29990 kPa | – | 424.03
523.25 K, 34989 kPa | – | 442.55
Liquid, visual observation in a variable volume cell:FP | 236.4 | –

Liquid
Settings | Critical pressure [kPa] | Critical temperature [K]
– | 4027.3 | 428.61
